Measurements reported in patent US8653048B2 (Sanlugen Pharmatech Ltd., priority 2009, dated 2014).

Key:
[1] = test system: HepG2 tumor transplanted in nude mice; assay: HepG2 tumor transplanted in nude mice, intravenous administration; assay type: in vivo, BALB/C nude mice; settings: for weight loss rate: HepG2 nude mice; for effect on growth of HepG2 tumor (growth curve and tumor weight), in words: i.v., SL-01 10, 20, 40 mg/kg, Gem group
Experimental: 1. […] The drugs were packaged and stored at −20° C.
The treatment starting day was the first day (d0). […] The tumor tissues were removed and weighed. The inhibition rate of tumor growth was calculated.
4.2 The low, middle and high dosage of SL-01 in the treatment for HepG2 liver cancer cell line tumor growth transplanted in nude mice are 10, 20 and 40 mg/kg, respectively.

[2] = test system: H460 cells, a human lung cancer cell line, inoculated in nude mice; assay: H460 tumor in nude mice, oral administration of SL-01; assay type: in vivo, Balb/c female nude mice; settings: for Tumor Weight, Average Value: end of the experiment; for drop of animal weight: figure fits day 22 versus negative control (Table 13)
Experimental: 1. […] Suspension formulation was prepared using 2.5% starch for intragastric administration. […] In the test, it was dissolved in normal saline and filtered with microfiltration membrane and administrated by tail vein injection. Positive control drug: Ftorafur (FT-207) produced by Qilu Pharmaceutical Co. Ltd., oral formulation.
2. Experimental animals: 50 Balb/c female nude mice at 4-5 weeks old, purchased from Peking University Health Science Center.
1. Culture of tumor cells: H460 cells were cultured in an incubator with 5% CO2 at 37° C. using RPMI-1640 nutrient solution containing 10% fetal calf serum. The cells were passaged through routine method.
2.2 Method of inoculating tumor cells in nude mice: cells were collected when they grew to about […] in culture flasks. Cells were washed twice with PBS before they were digested, then 1.5 mL of digestion solution juices was added into every bottle. They were observed under a microscope and the digestion was terminated after the cells were shed. Cell suspension was collected into 50 mL of centrifugal tube and centrifuged and washed twice with PBS. It was counted and suspended with 10 mL of normal saline to get the tumor cell suspension of inoculated nude mice. The tumor cells (1×10^7/0.2 mL) were inoculated in the left front armpits of mice. The tumor growth was observed after the inoculation.
4. Evaluation protocols for drug treating effect: these mice were weighed before drug administration and every week thereafter. The long tumor pathline (a) and the short tumor pathline (b) were measured at the same time. The formula for calculating the tumor volume is V=(a×b^2)/2. Mice were euthanized after drug administration for 3 weeks. The tumor was taken out and weighed. […] W was the tumor weight of the treatment group.

[3] = test system: HepG2: a human liver cancer cell line; assay: MTT analytical method, HepG2 cells; assay type: cell-based; settings: 72 h
Excerpt: (§1) MTT analytical method was used to test the prodrugs for various tumor cells.
(§2) • 1) Cell lines: NCI-H460, A549, LOVO, HT-29, MDA-MB-231, SGC7901, HepG2 or BEL-7402 cell lines. Culture: adherent culturing in D-MEM (Hyclone, Inc.) containing 10% fetal calf serum. The initial cell concentration was about 3×10^5 /mL. The cell was passaged by 1:3 dilution in every 2-3 days. On the day before the test, the cell was passaged by 1:2 dilution, the cell concentration for the test was 5-10×10^5 /mL. • 2) Dissolution and dilution of compounds: according to the weight and molecular weight of the drugs provided, 100-200 μL of DMSO was added. Then normal saline was added to make the final diluted concentration of the drugs be 5 mM (Note that the final concentration of DMSO should not be more than 10%). • 3) D-MEM or RPMI 1640 cell culture medium, Gibco, Inc. • 4) Fetal calf serum Hyclone, Inc. • 5) Cell dissociation buffer, 0.25% Trypsin+0.02% EDTA. • 6) MTT solution, MTT Powder (Sigma) were dissolved in PBS buffer solution to make a solution of 5 mg/mL. The solution was filtered by a 0.22 μm micropore membrane and stored at −20° C. • 7) PBS buffer solution. • 8) 10% acidified SDS, 0.01N HCl. • 9) Centrifuge tubes, haustorial tubes etc. (BD, Inc.); 96-well plates (Costatr, Inc.) Procedures: • 1) Cell inoculation: Cells grown for 24 hours after passage, which cells were in good growth state, were used. The cells were harvested by the routine method. The cell concentration was adjust with a fresh culture solution to 2×10^5/mL (for adherent cells)-3×10^5/mL (for suspension cells). The adherent cells were inoculated at 100 μL/well and then cultivated in an incubator with 5% CO2 at 37° C. for 24 h. Thereafter the used culture solution was removed and 95 μL/well of fresh culture solution was added. The suspension cells were inoculated at 95 μL/well directly. • 2) Drugs treatment: 9 concentration grades were designed for every drug, and every concentration had 3 wells. The control group had 5 wells. The control group was tested simultaneously in each test. The final concentrations of a drug added were […], and 5 μL normal saline was added to the control group. • 3) Cell culture and detection: the cells were cultured in an incubator with 5% CO2 at 37° C. for 72 h after the drug was added, then 10 μL MTT was added to each well and the culture was continued for 4 h. 100 μL of 10% SDS (containing 0.01N HCl) was added to each well. After 24 h, the absorbance (A) of each well was determined by Bio-rad 680 ELISA with the detection wavelength of 570 nm and the reference wavelength of 630 nm. Calculation:
(§3) First, the absorbance (A) of each well was averaged (removing any data with big difference). […] A0 was the mean absorbance of the control wells. The effect curve of the drug concentration was drawn using EXCEL software and the drug concentration for 50% cell survival was calculated according to an appropriate computing methods.

[4] = test system: Bel7402: a human liver cancer cell line; assay: MTT analytical method, Bel7402 cells; assay type: cell-based; settings: Bel-7402, 72 h
Excerpt: as §1, §2, §3

[5] = test system: NCI-H460: a human lung cancer cell line; assay: MTT analytical method, NCI-H460 cells; assay type: cell-based; settings: 72 h
Excerpt: as §1, §2, §3

[6] = test system: HT29: a human colon cancer cell line; assay: MTT analytical method, HT29 cells; assay type: cell-based; settings: HT-29, 72 h
Excerpt: as §1, §2, §3

[7] = SL-01 middle dosage 60 mg/kg gavage
[8] = SL-01 middle dosage group 60 mg/kg gavage
[9] = SL-01 small dosage 30 mg/kg gavage
[10] = SL-01 small dosage group 30 mg/kg gavage

What does the source list for `CCCCCCCCCCCCOC(=O)c1nccnc1C(=O)Nc1ccn([C@@H]2O[C@H](CO)[C@@H](O)C2(F)F)c(=O)n1` [Compound 4, Dodecyl-3-((1-((2R,4R,5R)-3,3-difluoro-4-hydroxy-5-(hydroxymethyl)-tetrahydrofuran-2-yl)-2-oxo-1,2-dihydropyrimidin-4-yl)carbamoyl)pyrazine-2-carboxylate]?
weight loss rate ([1]; SL-01 high dosage 40 mg/kg i.v.): 3.5%; weight loss rate ([1]; SL-01 low dosage 10 mg/kg i.v.): 11.6%; weight loss rate ([1]; SL-01 middle dosage 20 mg/kg i.v.): 14%; effect on growth of HepG2 tumor (growth curve and tumor weight), in words [1]: neither SL-01 nor gemcitabine has shown an obvious inhibitory effect; Mean Volume of Tumor ([2]; SL-01 middle dosage 60 mg/kg gastric gavage 1 per 3 days, day 7): 739.6 mm^3; Mean Volume of Tumor ([2]; SL-01 middle dosage 60 mg/kg gastric gavage 1 per 3 days, day 14): 823.4 mm^3; Mean Volume of Tumor ([2]; SL-01 middle dosage 60 mg/kg gastric gavage 1 per 3 days, day 18): 870.2 mm^3; Mean Volume of Tumor ([2]; SL-01 middle dosage 60 mg/kg gastric gavage 1 per 3 days, day 22): 905.3 mm^3; Inhibition ratio (tumor weight) [2, 7]: 53.7%; Mean Weight of Nude Mice ([2]; SL-01 middle dosage 60 mg/kg gavage, day 0): 19.5 g; Mean Weight of Nude Mice ([2]; SL-01 middle dosage 60 mg/kg gavage, day 7): 19.1 g; Mean Weight of Nude Mice ([2]; SL-01 middle dosage 60 mg/kg gavage, day 14): 19.6 g; Mean Weight of Nude Mice ([2]; SL-01 middle dosage 60 mg/kg gavage, day 22): 19.6 g; Tumor Weight, Average Value [2, 7]: 0.95 g; efficacy by t-test, in words [2, 8]: significant efficacy; drop of animal weight [2, 8]: 14.8%; Mean Volume of Tumor ([2]; SL-01 small (low) dosage 30 mg/kg gastric gavage 1 per 3 days, day 7): 761.3 mm^3; Mean Volume of Tumor ([2]; SL-01 small (low) dosage 30 mg/kg gastric gavage 1 per 3 days, day 14): 840.9 mm^3; Mean Volume of Tumor ([2]; SL-01 small (low) dosage 30 mg/kg gastric gavage 1 per 3 days, day 18): 950.5 mm^3; Mean Volume of Tumor ([2]; SL-01 small (low) dosage 30 mg/kg gastric gavage 1 per 3 days, day 22): 1092.0 mm^3; Inhibition ratio (tumor weight) [2, 9]: 48.3%; Mean Weight of Nude Mice ([2]; SL-01 small dosage 30 mg/kg gavage, day 0): 19.6 g; Mean Weight of Nude Mice ([2]; SL-01 small dosage 30 mg/kg gavage, day 7): 19.3 g; Mean Weight of Nude Mice ([2]; SL-01 small dosage 30 mg/kg gavage, day 14): 19.9 g; Mean Weight of Nude Mice ([2]; SL-01 small dosage 30 mg/kg gavage, day 22): 19.7 g; Tumor Weight, Average Value [2, 9]: 1.06 g; efficacy by t-test, in words [2, 10]: significant efficacy; drop of animal weight [2, 10]: 14.3%; IC50 [3]: 6 µM; IC50 [4]: 8 µM; IC50 [5]: < 2 µM; IC50 [6]: 2 µM

Which weight loss rate ([1]; gemcitabine positive control) does the source give for `Nc1ccn([C@@H]2O[C@H](CO)[C@@H](O)C2(F)F)c(=O)n1` [Gemcitabine, gemcitabine, reference compound] here?
The weight loss rate was 9%.

And the “effect on growth of HepG2 tumor (growth curve and tumor weight), in words” value [1]?
Its value is “neither SL-01 nor gemcitabine has shown an obvious inhibitory effect”.

And the “Mean Volume of Tumor” value ([2]; Gemcitabine 30 mg/kg i.v. 1 per 3 days, day 7)?
Its value is 700.7 mm^3.

What about the “Mean Volume of Tumor” value ([2]; Gemcitabine 30 mg/kg i.v. 1 per 3 days, day 14) of the same compound?
The value was 759.7 mm^3.

What about the “Mean Volume of Tumor” value ([2]; Gemcitabine 30 mg/kg i.v. 1 per 3 days, day 18) of the same compound?
Its value is 804.5 mm^3.

And the “Mean Volume of Tumor” value ([2]; Gemcitabine 30 mg/kg i.v. 1 per 3 days, day 22)?
Its value is 868.0 mm^3.

And the “Mean Weight of Nude Mice” value ([2]; Gemcitabine 30 mg/kg i.v., day 0)?
The value was 19.1 g.

And the “Mean Weight of Nude Mice” value ([2]; Gemcitabine 30 mg/kg i.v., day 7)?
The value was 19.0 g.

What about the “Mean Weight of Nude Mice” value ([2]; Gemcitabine 30 mg/kg i.v., day 14) of the same compound?
Its value is 18.6 g.

What about the “Mean Weight of Nude Mice” value ([2]; Gemcitabine 30 mg/kg i.v., day 22) of the same compound?
The value was 18.2 g.

And the “Tumor Weight, Average Value” ([2]; Gemcitabine 30 mg/kg i.v.)?
The value was 0.89 g.

And the “efficacy by t-test, in words” value ([2]; gemcitabine group 30 mg/kg i.v.)?
Its value is “significant efficacy”.

And the IC50 [3]?
Its IC50 is < 1 µM.

What about the IC50 [4] of the same compound?
Its IC50 is 4 µM.

And the IC50 [5]?
The IC50 was < 1 µM.

What about the IC50 [6] of the same compound?
The IC50 was 7 µM.
